The text below walks through data of patent US20020048271A1, “Methods and composition for restoring conformational stability of a protein of the p53 family” (priority 1998, published 2002).

For one assay, the target named is T1, wild-type p53 DBD (Homo sapiens, UniProt P04637).
T1 construct: Recombinant DBD (residues 94-312) from wild-tvpe and mutant p53 proteins; made in house
Put plainly: p53 DBD thermostabilization assay (ELISA for mAb1620 epitope). The assay is classed as biochemical. As to conditions: 0.5 ng of p53 DBD heated at 45° C. for 30 minutes; read-out: SC50: concentration of compound required to preserve 50% of the epitope for mAb 1620. How it is done:
Thermostabilization Assay. Recombinant DBD (residues 94-312) from wild-tvpe and mutant p53 proteins and FLAG-tagged p53 DBD were prepared as described (Pavletich et al., 1993, Genes and Dev. 7, 2556-2564; Bullock et al., 1997, supra.). Mutant proteins used were 143A, 173A, 175S. 249S, and 273H. A number of small molecule organic compounds were tested. Compound stocks were dissolved in DMSO at 10 mg/ml and diluted prior to use. The proteins (0.25-1.0 ng/well) were diluted in a buffer containing 25 mM HEPES, pH 6.8, 150 mM KCl, 10 mM dithiothreitol and attached in 50 ul to Reacti-Bind microtiter plates (Pierce) for 35 minutes on ice. The wells were rinsed with 25 mM HEPES, pH 6.8, 150 mM KCl, compound or diluted DMSO vehicle added, and the plates incubated at the indicated temperatures. Incubation was terminated by placing the wells on ice; ELISA assays performed while maintaining the plates on ice in order to avoid further alterations of the epitopes. Wells were blocked for 1 hour with cold 5 percent skim milk (Difco) in HEPES/KCl buffer prior to addition of the primary antibodies. Monoclonal antibodies mAb1620, mAb240 (Calbiochem) and anti-FLAG M2 antibody (Eastman Kodak Company) were diluted at 1:100-1:250 in HEPES/KCl and added at 100 ul/well for 30 minutes. The plates were rinsed twice with cold HEPES/KCl buffer and incubated with horseradish peroxidase (HRP)-conjugated anti-mouse IgG (Boehringer Mannheim) for another 30 minutes. The HRP signal was developed using TMB developer (Pierce) and the optical density of the signal was read on a BioRad microplate reader set at 450 nm.
(In general: An ELISA detects its analyte on a solid surface through an enzyme-linked reagent.)

In the next assay the test system is mutant mouse p53. Conditions: Brown et al., 1997; cited from earlier work.
Assay [1] deals with mutant p53 (position 173 or position 249) in Saos-2 cells. The assay can be described thus: WAF1 and p53 expression, Western blot, Saos-2 cells with transfected mutant p53. Format: cell-based. As to conditions: position 173 or 249 mutant; Compound X for 16 hours. In general terms: A western blot detects proteins with antibodies after separation by electrophoresis.
Description: WAF1 and p53 Expression. […] Protein concentrations were determined using Bradford reagent (BioRad) and 5 or 10 ug of cell lysate were loaded onto 8-16 percent gradient polyacrylamide/SDS gels (Novex). […] The blots were washed for one hour in three changes of Tris buffered saline with 0.1 percent Tween 20, before the addition of the secondary antibody, HRP-conjugated anti-mouse IgG. The bands were visualized using Renaissance ECL (DuPont) and exposure to Hyperfilm ECL (Amersham Life Science).

Molecules are shown by their SMILES.

T1 sequence (P04637 94-312): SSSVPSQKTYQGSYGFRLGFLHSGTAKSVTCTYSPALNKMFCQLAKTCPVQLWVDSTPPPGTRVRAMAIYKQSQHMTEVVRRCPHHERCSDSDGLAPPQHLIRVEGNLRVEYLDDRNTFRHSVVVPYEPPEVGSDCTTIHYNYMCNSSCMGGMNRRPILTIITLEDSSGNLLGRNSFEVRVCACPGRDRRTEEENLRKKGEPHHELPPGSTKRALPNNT

Take `CCN(CC)CCCCNc1c2ccccc2cc2ncccc12` [Compound 3B]: on wild-type p53 DBD, the EC50 worked out at 120 µM.
With `c1ccc2c(NCCN3CCOCC3)c3cccnc3cc2c1` [Compound 2B], the EC50 at wild-type p53 DBD was more than 300 µM.
As to `C(=C\c1nc(NCCCN2CCOCC2)c2ccccc2n1)/c1ccccc1` [Compound 1A], the EC50 at wild-type p53 DBD was determined as 36 µM.
As for `CN(C)CCCN1c2ccccc2Sc2ccccc21` [Compound 4B], the EC50 at wild-type p53 DBD was more than 300 µM.
On the same count and under the same terms, for `C(=C\c1nc(N2CCOCC2)c2ccccc2n1)/c1ccccc1` [Compound 1B] the value was more than 300 µM.
On to `OCC(O)CO` [Glycerol], for which the “Concentration restoring nuclear localization of mutant mouse p53” value with mutant mouse p53 is 600 mM.
As to `COc1cccc2c1C(=O)c1c(O)c3c(c(O)c1C2=O)C[C@@](O)(C(=O)CO)C[C@@H]3O[C@H]1C[C@H](N)[C@H](O)[C@H](C)O1` [Adriamycin], the “WAF1 expression in Saos-2 cells with mutant p53” value in assay [1] is given as “did not induce WAF-1 expression”.
With `CC(CN(C)C)CN1c2ccccc2Sc2ccccc21` (stereo not shown) [Compound 4A], at wild-type p53 DBD, the EC50 came to 38 µM.
For the molecule `c1ccc2c(NCCCN3CCOCC3)c3cccnc3cc2c1` [Compound 2A], at wild-type p53 DBD, the EC50 was found to be 120 µM.
As for `CCN(CC)CCCNc1c2ccccc2cc2ncccc12` [Compound 3A], on wild-type p53 DBD, the EC50 came to 50 µM.
